Test results as given in patent US12071437B1, “Pyrazolo[1,5-a]pyrido[4,3-e]pyrimidine-2-carboxylic acids as CK2 inhibitors” (KING FAISAL UNIVERSITY, priority 2024, dated 2024).

Key:
[1] = test system: PC3 (prostate) cancer cells; test: In vitro cytotoxic activity MTT assay, PC3; type: cell-based; settings: Homo sapiens, PC-3, 96 hours exposure, 50% inhibition of cell proliferation, read-out: Cytotoxicity activity IC50, PC3 (prostate)
Method: (§1) Compounds 1-16 were screened for their in vitro cytotoxic activity utilizing a 3-(4,5-dimethyl-thiazol-2-yl)-2,5-diphenyltetrazolium bromide (MTT) assay against selected cancer human cell lines consisting of PC3 (prostate), HCT116 (colon), A375 (melanoma), H1299 (lung), MIAPaCa-2 (pancreas), HL60 (leukemia), MCF7 (breast), MDA-MB-231 (breast) (T. Mosmann, J. Immunol. Meth., 1983, 65, 55-63). The cells were cultured at 37° C. in RMPI1640 medium supplemented with 10% fetal bovine serum, 50 IU/mL penicillin, and 50 μg/mL streptomycin in a 5% CO2 incubator. All cells were sub-cultured 3 times/week by trypsinisation. Viable cells were seeded and allowed to adhere for 12 hours before a test drug was added in 96-well plates at an initial density of 1.0×10^5 cells/mL. Tumor cell lines were separately exposed to various concentrations of the tested compounds followed by incubation at a temperature of 37° C. during 96 hours inside a medium of fresh RMPI1640. Cells were subsequently incubated at 37° ° C. using MTT at 0.5 mg/mL during 4 hours. After removal of supernatant, formazan crystals were dissolved in isopropanol and the optical density was measured at 570 nm. CX-4945 was used as a positive control.

[2] = biological target: T1, recombinant human CK2 (RRββ-holoenzyme) (Homo sapiens, UniProt P68400); test: CK2 Kinase Assay (33P-ATP, substrate peptide RRRDDDSDDD); type: biochemical; settings: final ATP 15 μM, 10 min at 30° C., read-out: protein kinase CK2 inhibition IC50
T1 construct: purchased Millipore
T1 sequence (P68400 whole entry): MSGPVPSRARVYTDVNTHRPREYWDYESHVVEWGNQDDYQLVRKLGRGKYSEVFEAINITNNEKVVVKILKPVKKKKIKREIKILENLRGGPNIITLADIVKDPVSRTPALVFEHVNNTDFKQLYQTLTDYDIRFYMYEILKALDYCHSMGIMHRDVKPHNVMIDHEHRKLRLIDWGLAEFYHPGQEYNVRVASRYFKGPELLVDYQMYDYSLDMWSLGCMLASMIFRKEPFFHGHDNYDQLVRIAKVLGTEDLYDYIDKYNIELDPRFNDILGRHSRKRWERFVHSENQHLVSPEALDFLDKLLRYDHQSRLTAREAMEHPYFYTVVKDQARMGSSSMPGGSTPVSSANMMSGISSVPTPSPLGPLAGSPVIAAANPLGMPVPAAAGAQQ
T1 sequence (P67870 whole entry partner): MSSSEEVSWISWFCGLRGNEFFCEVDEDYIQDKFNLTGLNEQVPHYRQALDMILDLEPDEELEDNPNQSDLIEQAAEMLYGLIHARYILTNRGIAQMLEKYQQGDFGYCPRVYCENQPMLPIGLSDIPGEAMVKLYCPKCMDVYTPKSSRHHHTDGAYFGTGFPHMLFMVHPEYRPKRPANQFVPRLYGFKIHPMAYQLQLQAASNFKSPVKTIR
Method: CK2 Kinase Assay was conducted using the protocol as described in Pierre F. et al; J. Med. Chem. 2011, 54, 635-654. The tested compounds in aqueous solution were added at a volume of 10 μL to a reaction mixture comprising 10 μL of assay dilution buffer (ADB; 20 mM MOPS, pH 7.2, 25 mM β-glycerol phosphate, 5 mM EGTA, 1 mM sodium orthovanadate, and 1 mM dithiothreitol), 10 μL of substrate peptide (RRRDDDSDDD, dissolved in ADB at a concentration of 1 mM), 10 μL of recombinant human CK2 (RRββ-holoenzyme, 25 ng dissolved in ADB; Millipore). Reactions were initiated by the addition of 10 μL of ATP solution (90% 75 mMMgCl2, 75 μM ATP (final ATP concentration: 15 μM) dissolved in ADB; 10% [γ-33P] ATP (stock 1 mCi/100 μL; 3000 Ci/mmol (Perkin-Elmer) and maintained for 10 min at 30° C. The reactions were quenched with 100 μL of 0.75% phosphoric acid and then transferred to and filtered through a phosphor cellulose filter plate (Millipore). After washing each well five times with 0.75% phosphoric acid, the plate was dried under vacuum for 5 min and, following the addition of 15 μL of scintillation fluid to each well, the residual radioactivity was measured using a Wallac […]. The IC50 values were derived from eight concentrations of test inhibitors.

[3] = test system: MIAPaCa-2 (pancreas) cancer cells; test: In vitro cytotoxic activity MTT assay, MIAPaCa-2; type: cell-based; settings: Homo sapiens, MIA PaCa-2; MIAPaCa-2 cells, 96 hours exposure, 50% inhibition of cell proliferation; read-out: Cytotoxicity activity IC50, MIAPaCa-2 (pancreas)
Method: as §1

[4] = test system: HL60 (leukemia) cancer cells; test: In vitro cytotoxic activity MTT assay, HL60; type: cell-based; settings: Homo sapiens, HL-60, 96 hours exposure, 50% inhibition of cell proliferation, read-out: Cytotoxicity activity IC50, HL60 (leukemia)
Method: as §1

[5] = test system: MCF7 (breast) cancer cells; test: In vitro cytotoxic activity MTT assay, MCF7; type: cell-based; settings: Homo sapiens, 96 hours exposure, 50% inhibition of cell proliferation, read-out: Cytotoxicity activity IC50, MCF7 (breast)
Method: as §1

[6] = test system: HCT116 (colon) cancer cells; test: In vitro cytotoxic activity MTT assay, HCT116; type: cell-based; settings: Homo sapiens, HCT-116, 96 hours exposure, 50% inhibition of cell proliferation, read-out: Cytotoxicity activity IC50, HCT116 (colon)
Method: as §1

[7] = test system: H1299 (lung) cancer cells; test: In vitro cytotoxic activity MTT assay, H1299; type: cell-based; settings: Homo sapiens, NCI-H1299, 96 hours exposure, 50% inhibition of cell proliferation, read-out: Cytotoxicity activity IC50, H1299 (lung)
Method: as §1

[8] = test system: MDA-MB-231 (breast) cancer cells; test: In vitro cytotoxic activity MTT assay, MDA-MB-231; type: cell-based; settings: Homo sapiens; MDA-MB-231 cells, 96 hours exposure, 50% inhibition of cell proliferation; read-out: Cytotoxicity activity IC50, MDA-MB-231 (breast)
Method: as §1

[9] = test system: A375 (melanoma) cancer cells; test: In vitro cytotoxic activity MTT assay, A375; type: cell-based; settings: Homo sapiens, A-375, 96 hours exposure, 50% inhibition of cell proliferation, read-out: Cytotoxicity activity IC50, A375 (melanoma)
Method: as §1

Compound: O=C(O)c1cc2nc(Nc3cccc(Cl)c3)c3ccncc3n2n1 [Compound 1, 5-((3-Chlorophenyl)Amino)Pyrazolo[1,5-a]Pyrido[4,3-e]Pyrimidine-2-Carboxylic Acid]
- IC50 [1]: 1700 nM
- IC50 [2]: 72 nM
- IC50 [3]: 1300 nM
- IC50 [4]: 3.2 µM
- IC50 [5]: 5.4 µM
- IC50 [6]: 1600 nM
- IC50 [7]: 1900 nM
- IC50 [8]: 4.8 µM
- IC50 [9]: 4.5 µM
